Laboratory results from the supplement of paper PMC10307832.

Experiments:
Test in all cases: relative viability (nuclei count vs DMSO), 5 days (fraction); higher = more cells survive
DM3189 = compound: C1CN(CCN1)C2=CC=C(C=C2)C3=CN4C(=C(C=N4)C5=CC=NC6=CC=CC=C56)N=C3 [DM3189]
In short: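 Viability was defined as treated-well nuclei divided by vehicle-well nuclei, with the median taken over replicate plates. Cells from lung cancer lines sat overnight at 37 °C in 1536-well plates, received five √10-spaced library-drug doses by pinning on vehicle-anchored plates, and grew 5 days without medium change before one-step fixation, permeabilisation and Hoechst staining, 4× imaging and MetaXpress nuclear counts. Only plates with control CV under 25% and at least one doubling were kept.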

DM3189 + Linsitinib = compound: C1CN(CCN1)C2=CC=C(C=C2)C3=CN4C(=C(C=N4)C5=CC=NC6=CC=CC=C56)N=C3 [DM3189] + C[C@]1(O)C[C@@H](c2nc(-c3ccc4ccc(-c5ccccc5)nc4c3)c3c(N)nccn32)C1 [Linsitinib] (partner 1 µM)
In short: (§1)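 Values are medians from duplicate plates. Each reflects relative viability, defined as the nuclei count of treated wells over that of vehicle wells. Lung cancer cell lines in 1536-well plates were pin-tool dosed one day after seeding with one drug alone or with a fixed anchor-drug dose plus five library-drug doses (not always all listed) in √10 steps, then fixed, stained and imaged at 4× after 5 days.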

DM3189 + Foretinib = compound: C1CN(CCN1)C2=CC=C(C=C2)C3=CN4C(=C(C=N4)C5=CC=NC6=CC=CC=C56)N=C3 [DM3189] + COc1cc2c(Oc3ccc(NC(=O)C4(C(=O)Nc5ccc(F)cc5)CC4)cc3F)ccnc2cc1OCCCN1CCOCC1 [Foretinib] (partner 0.25 µM)
In short: as §1

DM3189 + Phenformin = compound: C1CN(CCN1)C2=CC=C(C=C2)C3=CN4C(=C(C=N4)C5=CC=NC6=CC=CC=C56)N=C3 [DM3189] + N=C(N)NC(=N)NCCc1ccccc1 [Phenformin] (partner 250 µM)
In short: as §1

DM3189 + Crizotinib = compound: C1CN(CCN1)C2=CC=C(C=C2)C3=CN4C(=C(C=N4)C5=CC=NC6=CC=CC=C56)N=C3 [DM3189] + C[C@@H](Oc1cc(-c2cnn(C3CCNCC3)c2)cnc1N)c1c(Cl)ccc(F)c1Cl [Crizotinib] (partner 1 µM)
In short: as §1

Row | Cell Line | relative viability (DM3189; 0.08 µM) | relative viability (DM3189; 0.253 µM) | relative viability (DM3189; 0.8 µM) | relative viability (DM3189; 2.53 µM) | relative viability (DM3189 + Linsitinib; first compound 0.08 µM) | relative viability (DM3189 + Linsitinib; first compound 0.253 µM) | relative viability (DM3189 + Linsitinib; first compound 0.8 µM) | relative viability (DM3189 + Linsitinib; first compound 2.53 µM) | relative viability (DM3189 + Foretinib; first compound 0.08 µM) | relative viability (DM3189 + Foretinib; first compound 0.253 µM) | relative viability (DM3189 + Foretinib; first compound 0.8 µM) | relative viability (DM3189 + Foretinib; first compound 2.53 µM) | relative viability (DM3189 + Phenformin; first compound 0.08 µM) | relative viability (DM3189 + Phenformin; first compound 0.253 µM) | relative viability (DM3189 + Phenformin; first compound 0.8 µM) | relative viability (DM3189 + Phenformin; first compound 2.53 µM) | relative viability (DM3189 + Crizotinib; first compound 0.08 µM) | relative viability (DM3189 + Crizotinib; first compound 0.253 µM) | relative viability (DM3189 + Crizotinib; first compound 0.8 µM) | relative viability (DM3189 + Crizotinib; first compound 2.53 µM)
1 | NCI-H1915 | 1.03 | 0.942 | 0.793 | 0.87 | 1.12 | 1.05 | 0.928 | 1.11 | 1.09 | 1.07 | 0.875 | 1.03 | 0.392 | 0.361 | 0.355 | 0.301 | 0.879 | 0.79 | 0.808 | 0.783
2 | PC-3 [JPC-3] | 1.13 | 1.01 | 1.04 | 1.1 | 0.975 | 0.91 | 0.972 | 1.06 | 1.09 | 1.1 | 0.993 | 1.08 | 0.475 | 0.467 | 0.471 | 0.467 | 1.05 | 1.04 | 1.04 | 1.12
3 | SW 1573 | 1.06 | 0.938 | 0.903 | 0.81 | 0.887 | 0.771 | 0.626 | 0.738 | 1 | 0.737 | 1.05 | 0.99 | 0.318 | 0.349 | 0.296 | 0.285 | 0.87 | 0.801 | 0.717 | 0.767
4 | NCI-H1437 | 1.05 | 0.995 | 0.989 | 1 | 1.05 | 1.06 | 0.966 | 0.893 | 1.29 | 1.33 | 1.33 | 1.33 | 0.363 | 0.325 | 0.308 | 0.323 | 0.904 | 0.898 | 0.832 | 0.831
5 | NCI-H1734 | 1.13 | 0.95 | 0.916 | 0.888 | 1.01 | 0.981 | 0.814 | 0.968 | 0.888 | 0.829 | 0.756 | 0.823 | 0.344 | 0.381 | 0.37 | 0.332 | 0.585 | 0.695 | 0.676 | 0.657
6 | LK-2 | 0.687 | 0.657 | 0.633 | 0.537 | 0.406 | 0.321 | 0.447 | 0.189 | 1.05 | 0.88 | 0.72 | 0.858 | 0.29 | 0.26 | 0.228 | 0.237 | 0.234 | 0.241 | 0.22 | 0.214
7 | HCC-15 | 1.07 | 0.923 | 0.91 | 0.942 | 0.873 | 0.821 | 0.857 | 0.715 | 1.16 | 0.962 | 1 | 0.927 | 0.555 | 0.437 | 0.41 | 0.435 | 0.883 | 0.763 | 0.824 | 0.685
8 | HCC-366 | 1.05 | 0.905 | 0.925 | 0.989 | 0.641 | 0.538 | 0.55 | 0.649 | 0.939 | 0.975 | – | 0.936 | 0.531 | 0.611 | – | 0.605 | 0.475 | 0.574 | 0.372 | 0.771
9 | NCI-H661 | 1.04 | 0.949 | 1.02 | 1.11 | 0.606 | 0.675 | 0.734 | 0.747 | 1.14 | 0.954 | 1.02 | 1.19 | 0.268 | 0.271 | 0.268 | 0.281 | 1 | 1.01 | 0.949 | 1.08
10 | NCI-H2405 | 1.1 | 0.975 | 0.951 | 1.03 | 0.909 | 0.922 | 0.792 | 0.878 | 1.04 | 1.06 | 1.02 | 1.05 | 0.384 | 0.351 | 0.416 | 0.411 | 0.867 | 0.855 | 0.775 | 0.855
11 | LXF-289 | 0.996 | 1.04 | 0.973 | 1.14 | 0.977 | 0.939 | 0.908 | 1.06 | 0.982 | 0.963 | 0.987 | 1.02 | 0.529 | 0.491 | 0.501 | 0.527 | 0.796 | 0.793 | 0.781 | 0.947
12 | BEN | 0.929 | 0.925 | 0.967 | 0.981 | 0.935 | 0.828 | 0.957 | 0.778 | 0.79 | 0.582 | 0.533 | 0.734 | 0.237 | 0.312 | 0.268 | 0.287 | 0.881 | 0.865 | 0.944 | 0.987
13 | NCI-H2085 | 1 | 0.933 | 1.04 | 1.03 | 0.932 | 0.858 | 0.973 | 0.946 | 0.982 | 1.02 | 0.925 | 1.01 | 0.722 | 0.72 | 0.633 | 0.75 | 0.941 | 0.807 | 0.872 | 0.752
14 | NCI-H727 | 1.02 | 0.815 | 0.735 | 0.986 | 0.255 | 0.326 | – | 0.259 | 0.792 | 0.821 | 0.668 | 0.818 | 0.628 | 0.517 | – | 0.533 | 0.889 | 0.821 | – | 0.737
15 | NCI-H1355 | 1.01 | 0.968 | 0.842 | 0.951 | 0.785 | 0.793 | 0.663 | 0.738 | 0.987 | 0.968 | 0.91 | 0.979 | 0.438 | 0.43 | 0.405 | 0.394 | 1.14 | 1.12 | 0.955 | 0.971
